The experiment deals with T1, recombinant human GR (Homo sapiens, UniProt P04150).
T1 construct: purchased Panvera/Invitrogen P2812 (kit P2893)
T1 sequence (P04150 1-777): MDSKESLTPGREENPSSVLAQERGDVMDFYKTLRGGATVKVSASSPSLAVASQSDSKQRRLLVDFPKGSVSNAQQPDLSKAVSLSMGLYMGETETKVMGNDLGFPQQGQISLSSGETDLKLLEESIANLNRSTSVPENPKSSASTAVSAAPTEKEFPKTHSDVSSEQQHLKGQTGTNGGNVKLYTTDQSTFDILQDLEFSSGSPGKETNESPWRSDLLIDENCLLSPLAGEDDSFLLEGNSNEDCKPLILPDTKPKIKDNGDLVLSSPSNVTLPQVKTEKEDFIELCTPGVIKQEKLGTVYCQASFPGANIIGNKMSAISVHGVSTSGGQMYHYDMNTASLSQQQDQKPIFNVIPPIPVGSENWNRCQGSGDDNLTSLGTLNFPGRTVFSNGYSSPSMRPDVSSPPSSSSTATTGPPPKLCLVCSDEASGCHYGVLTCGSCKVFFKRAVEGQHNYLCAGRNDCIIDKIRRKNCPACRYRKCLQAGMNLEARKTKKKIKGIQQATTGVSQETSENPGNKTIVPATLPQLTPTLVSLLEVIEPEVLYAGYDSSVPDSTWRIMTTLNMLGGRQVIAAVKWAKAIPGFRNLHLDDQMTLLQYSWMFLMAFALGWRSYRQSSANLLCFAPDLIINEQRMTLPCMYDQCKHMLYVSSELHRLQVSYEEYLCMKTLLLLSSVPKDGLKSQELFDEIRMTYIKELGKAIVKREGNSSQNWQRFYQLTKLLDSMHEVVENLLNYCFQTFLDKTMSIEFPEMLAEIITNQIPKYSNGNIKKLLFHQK
Put plainly: Human Glucocorticoid Receptor (GR) Assay, fluorescence polarization (GRhuFL_FP_v2, GR-binders). The format is binding. The protocol:
Human Glucocorticoid Receptor (GR) Assay
The assay is based on a commercial kit from Panvera/Invitrogen (Part number P2893). The assay technology is fluorescence polarization. […] The GR and Stabilizing Peptide reagents are stored at −70° C. while the GS Red is stored at −20° C. Also included in the kit are 1M DTT (Panvera, Part number P2325, stored at −20° C.) and GR Screening buffer 10× (Panvera, Part number P2814, stored at −70° C. initially but once thawed stored at room temperature). Avoid repeated freeze/thaws for all reagents. The GR Screening buffer 10× comprises 100 mM potassium phosphate, 200 mM sodium molybdate, 1 mM EDTA and 20% DMSO.
0% control was 100% DMSO and 100% control was 10 μM Dexamethasone. Background solution (8 μL; assay buffer 10×, Stabilizing Peptide, DTT and ice cold MQ water) was added to the background wells. GS Red solution (7 μL; assay buffer 10×, Stabilizing Peptide, DTT, GS Red and ice cold water) was added to all wells except background wells. GR solution (7 μL; assay buffer 10×, Stabilizing Peptide, DTT, GR and ice cold water) was added to all wells. The plate was sealed and incubated in a dark at room temperature for 2 hours.
A general note: In fluorescence polarisation assays a small probe gives low polarisation when free and higher when bound to something large.

Usually IC50 stands for the concentration that gives 50% inhibition.

In the case of `Cc1nn(C2CCCC2)c(C)c1S(=O)(=O)N[C@@H](C)CNc1cccc2c1cnn2-c1cncnc1` [Example 29, 1-Cyclopentyl-3,5-dimethyl-N-{(1S)-1-methyl-2-[(1-pyrimidin-5-yl-1H-indazol-4-yl)amino]ethyl}-1H-pyrazole-4-sulfonamide], the half-maximal inhibitory concentration (IC50) is 5.7 nM.

Take `Cc1nn(C2CCCC2)c(C)c1S(=O)(=O)N[C@@H](C)CNc1cccc2c1cnn2-c1ccc(C#N)cc1` [Example 30, N-((1S)-2-{[1-(4-Cyanophenyl)-1H-indazol-4-yl]amino}-1-methylethyl)-1-cyclopentyl-3,5-dimethyl-1H-pyrazole-4-sulfonamide]: the half-inhibitory concentration (IC50) came out at 4.7 nM.

For the compound `COc1cncc(-n2ncc3c(NC[C@H](C)NS(=O)(=O)c4c(C)nn(C5CCCC5)c4C)cccc32)c1` [Example 31, 1-Cyclopentyl-N-((1S)-2-{[1-(5-methoxypyridin-3-yl)-1H-indazol-4-yl]amino}-1-methylethyl)-3,5-dimethyl-1H-pyrazole-4-sulfonamide], the IC50 came out at 44 nM.

Consider `Cc1cc(C)c(S(=O)(=O)N[C@@H](C)CNc2c(F)ccc3c2cnn3-c2ccc(F)cc2)c(C)c1` [Example 32, N-((1S)-2-{[5-Fluoro-1-(4-fluorophenyl)-1H-indazol-4-yl]amino}-1-methylethyl)-2,4,6-trimethylbenzenesulfonamide], for which the IC50 came out at 4.2 nM.

For the compound `Cc1cc(C)c(S(=O)(=O)N[C@@H](C)CNc2ccc(F)c3c2cnn3-c2ccc(F)cc2)c(C)c1` [Example 33, N-((1S)-2-{[7-Fluoro-1-(4-fluoro-phenyl)-1H-indazol-4-yl]amino}-1-methylethyl)-2,4,6-trimethylbenzenesulfonamide], the IC50 amounted to 5.5 nM.

In the case of `Cc1cc(C)c(S(=O)(=O)N[C@@H](C)CNc2ncnc3c2cnn3-c2ccccc2)c(C)c1` [Example 34, 2,4,6-Trimethyl-N-{(1S)-1-methyl-2-[(1-phenyl-1H-pyrazolo[3,4-d]pyrimidin-4-yl)amino]ethyl}benzenesulfonamide], the 50% inhibitory concentration (IC50) came out at 5300 nM.

As for `Cc1cc(C)c(S(=O)(=O)N[C@H](CNc2cccc3c2cnn3-c2ccc(F)cc2)C(C)C)c(C)c1` [Example 35, N-[(1S)-1-({[1-(4-Fluorophenyl)-1H-indazol-4-yl]amino}methyl)-2-methylpropyl]-2,4,6-trimethylbenzenesulfonamide], the IC50 worked out at 8 nM.

For the compound `Cc1cc(C)c(S(=O)(=O)NC(C)CSc2cccc3c2cnn3-c2ccc(F)cc2)c(C)c1` (centres unmarked) [Example 36, N-[2-[1-(4-Fluorophenyl)indazol-4-yl]sulfanyl-1-methylethyl]-2,4,6-trimethyl-benzenesulfonamide], the IC50 was 7.6 nM.

Regarding `Cc1cc(C)c(S(=O)(=O)NC(C)CS(=O)(=O)c2cccc3c2cnn3-c2ccc(F)cc2)c(C)c1` (centres unmarked) [Example 37, N-[2-[1-(4-Fluorophenyl)indazol-4-yl]sulfonyl-1-methyl-ethyl]-2,4,6-trimethyl-benzenesulfonamide], the IC50 came to 790 nM.

For the compound `Cc1cc(C)c(S(=O)(=O)NC(C)CCc2cccc3c2cnn3-c2ccc(F)cc2)c(C)c1` (centres unmarked) [Example 38, N-{3-[1-(4-Fluorophenyl)-1H-indazol-4-yl]-1-methylpropyl}-2,4,6-trimethylbenzenesulfonamide], the IC50 stood at 45 nM.

For the compound `Cc1cc(C)c(S(=O)(=O)N[C@@H](C)CCc2cccc3c2cnn3-c2ccc(F)cc2)c(C)c1` [Example 39, N-{(1S)-3-[1-(4-Fluorophenyl)-1H-indazol-4-yl]-1-methylpropyl}-2,4,6-trimethylbenzenesulfonamide], the IC50 amounted to 4.6 nM.

As for `Cc1cc(C)c(S(=O)(=O)NC[C@H](C)Nc2cccc3c2cnn3-c2ccc(F)cc2)c(C)c1` [Example 40, N-((2S)-2-{[1-(4-Fluorophenol)-1H-indazol-4-yl]amino}propyl)-2,4,6-trimethylbenzenesulfonamide], the IC50 is 6.4 nM.

Take `Cc1n[nH]c(C)c1S(=O)(=O)N[C@@H](C)COc1cccc2c1cnn2-c1ccc(F)cc1` [Example 41, N-((1S)-2-{[1-(4-Fluorophenyl)-1H-indazol-4-yl]oxy}-1-methylethyl)-3,5-dimethyl-1H-pyrazole-4-sulfonamide]: the IC50 is 1.5 nM.

For the compound `Cc1n[nH]c(C)c1S(=O)(=O)N[C@@H](C)COc1cccc2c1cnn2-c1cccnc1` [Example 42, 3,5-Dimethyl-N-{(1S)-1-methyl-2-[(1-pyridin-3-yl-1H-indazol-4-yl)oxy]ethyl}-1H-pyrazole-4-sulfonamide], the half-inhibitory concentration (IC50) was 4000 nM.

In the case of `Cc1nn(C(C)(C)C)c(C)c1S(=O)(=O)N[C@@H](C)COc1cccc2c1cnn2-c1ccc(F)cc1` [Example 43, 1-tert-Butyl-N-((1S)-2-[{1-(4-fluorophenyl)-1H-indazol-4-yl]oxy}-1-methylethyl)-3,5-dimethyl-1H-pyrazole-4-sulfonamide], the IC50 was 13 nM.

Regarding `Cc1nn(C(C)(C)C)c(C)c1S(=O)(=O)N[C@@H](C)COc1cccc2c1cnn2-c1cccnc1` [Example 44, 1-tert-Butyl-3,5-dimethyl-N-{(1S)-1-methyl-2-[(1-pyridin-3-yl-1H-indazol-4-yl)oxy]ethyl}-1H-pyrazole-4-sulfonamide], the IC50 was 80 nM.

As for `Cc1nn([C@@H]2CCOC2)c(C)c1S(=O)(=O)N[C@@H](C)COc1cccc2c1cnn2-c1ccc(F)cc1` [Example 45, N-((1S)-2-{[1-(4-Fluorophenyl)-1H-indazol-4-yl]oxy}-1-methylethyl)-3,5-dimethyl-1-[(3R)-tetrahydrofuran-3-yl]-1H-pyrazole-4-sulfonamide], the IC50 was 18 nM.

Regarding `CCC(CC)n1nc(C)c(S(=O)(=O)N[C@@H](C)COc2cccc3c2cnn3-c2ccc(F)cc2)c1C` [Example 46, 1-(1-Ethylpropyl)-N-((1S)-2-{[1-(4-fluorophenyl)-1H-indazol-4-yl]oxy}-1-methylethyl)-3,5-dimethyl-1H-pyrazole-4-sulfonamide], the IC50 came out at 18 nM.

For `Cc1nn([C@H]2CCOC2)c(C)c1S(=O)(=O)N[C@@H](C)COc1cccc2c1cnn2-c1ccc(F)cc1` [Example 47, N-((1S)-2-{[1-(4-Fluorophenyl)-1H-indazol-4-yl]oxy}-1-methylethyl)-3,5-dimethyl-1-[(3S)-tetrahydrofuran-3-yl]-1H-pyrazole-4-sulfonamide], the IC50 is 36 nM.

`Cc1nn(C2CCCC2)c(C)c1S(=O)(=O)N[C@@H](C)COc1cccc2c1cnn2-c1ccc(F)cc1` [Example 48, 1-Cyclopentyl-N-((1S)-2-{[1-(4-fluorophenyl)-1H-indazol-4-yl]oxy}-1-methylethyl)-3,5-dimethyl-1H-pyrazole-4-sulfonamide]: the half-inhibitory concentration (IC50) was determined as 51 nM.

On to `Cc1nn(C2CCCC2)c(C)c1S(=O)(=O)N[C@@H](C)COc1cccc2c1cnn2-c1cccnc1` [Example 49, 1-Cyclopentyl-3,5-dimethyl-N-{(1S)-1-methyl-2-[(1-pyridin-3-yl-1H-indazol-4-yl)oxy]ethyl}-1H-pyrazole-4-sulfonamide], for which the half-inhibitory concentration (IC50) was 54 nM.

Take `Cc1cc(C)c(S(=O)(=O)N[C@@H](C)CNc2cccc3c2cnn3C2CCCC2)c(C)c1` [Example 50, N-{(1S)-2-[(1-Cyclopentyl-1H-indazol-4-yl)amino]-1-methylethyl}-2,4,6-trimethylbenzene sulfonamide]: the half-maximal inhibitory concentration (IC50) was determined as 7 nM.

With `Cc1ccc(-n2ncc3c(NC[C@H](C)NS(=O)(=O)c4ccccc4)cccc32)cc1` [Example 51], the IC50 stood at 20 nM.

For `Cc1cc(C)c(S(=O)(=O)N[C@@H](C)CNc2cccc3c2c(C)nn3-c2ccc(F)cc2)c(C)c1` [Example 52, N-((1S)-2-{[1-(4-Fluoro-phenyl)-3-methyl-1H-indazol-4-yl]amino}-1-methylethyl)-2,4,6-trimethylbenzenesulfonamide], the IC50 was determined as 272 nM.

As for `Cc1cc(C)c(S(=O)(=O)N[C@@H](C)CCc2cccc3c(-c4ccc(F)cc4)n[nH]c23)c(C)c1` [Example 53, N-{(1S)-3-[3-(4-Fluorophenyl)-1H-indazol-7-yl]-1-methylpropyl}-2,4,6-trimethylbenzenesulfonamide], the IC50 is 10 nM.

For the compound `Cc1cc(C)c(S(=O)(=O)N[C@@H](C)CCc2cccc3c2cnn3-c2cncnc2)c(C)c1` [Example 54, 2,4,6-Trimethyl-N-[(1S)-1-methyl-3-(1-pyrimidin-5-yl-1H-indazol-4-yl)propyl]benzenesulfonamide], the half-maximal inhibitory concentration (IC50) is 17 nM.
